Laboratory results taken from patent publication US12534729B2, “Uses of synthetic lethal partners for treatment of cancer” (Sanford Burnham Prebys Medical Discovery Institute, priority 2019, dated 2026).

Key:
ATF4 = assay: Immunoblotting/qRT-PCR of ATF4 induction (GCN2-ATF4 axis) after ASNS knockdown; assay type: cell-based, human; conditions: for ATF4 induction following ASNS knockdown (immunoblot): melanoma cells, 72 hr, ISRIB 200 nM, eFT508 100 nM, sunitinib 500 nM
Method: (§1) Immunoblotting: Total protein was extracted in Laemmli buffer, fractionated by SDS polyacrylamide gels and transferred to PVDF membranes (Millipore Sigma, MA, USA). After blocking with 5% non-fat dry milk (BD Biosciences, CA, USA), the membranes were incubated with primary antibodies overnight at 4° C. Afterwards, 2 hr incubation with HRP-conjugated secondary antibodies was performed. Following chemiluminescence reaction, the protein signal was visualized using the ChemiDoc imaging system (Bio-Rad, Hercules, CA) according to the manufacturer's instructions.
qPCR Analysis: 1×10^5 cells were seeded O/N per well in 6-well plates. Following treatment for 48 hr, total RNA was extracted using RNeasy Mini Kit (Qiagen, Hilden, Germany). cDNA was synthesized using oligo(dT) and random primers (AB Bioscience, MA, USA), and qPCR analysis was performed with SYBR Green (Roche, NJ, USA). Primers were designed using the PrimerQuest tool (Integrated DNA Technologies, CA, USA) and Primer Bank Actin was used as an internal control.

[1] = tested on: A375 and UACC-903 melanoma cells; assay: Cell proliferation (cell count) of melanoma lines; assay type: cell-based, human; conditions: PLX-4032 250 nM; for cell proliferation in combination with ASNS knockdown (si-ASNS): melanoma cells, ISRIB 200 nM
Method: siRNA Transfection: 1×10^5 cells were seeded overnight (O/N) per well in 6-well plates. Negative control (NT-siRNA) or si-RNA targeting the transcript of interest was transfected utilizing jetPRIME® transfection reagent, as per manufacturer's instructions (Polyplus, NY, USA). Following siRNAs were used: si-ASNS #1 (SASI_Hs02_00332309), si-ASNS #2 (SASI_Hs01_00116721), si-ASNS #3 (SASI_Hs01_00116722), si-ATF4 (SASI_Hs02_00332313), si-eIF4E (SASI_Hs01_00216117), si-BRAF (SASI_Hs01_00107705), si-GCN2 (SASI_Hs01_00097888), si-MNK #1 (SASI_Hs01_00228422), si-MNK1 #2 (SASI_Hs01_00228423), si-MNK1 #3 (SASI_Hs01_00228424), and the negative control si-RNA (NT-siRNA; SIC001) were purchased from Sigma-Aldrich.
Cell Proliferation: For cell proliferation, 0.3-0.5×10^5 cells were seeded O/N in triplicate in 6-well plate. Following treatment for the specified duration, cells were trypsinized and the cell count was determined with Neubauer hemocytometer (Celeromics, Cambridge, UK).

[2] = tested on: MaNRAS1 (1007) mouse melanoma cells; assay: Subcutaneous MaNRAS1 (1007) NRAS mutant melanoma model; assay type: in vivo, C57BL/6 mice; conditions: L-A′ase and PD-325901 dosed as in pancreatic study
Method: (§2) In Vivo Studies: All animal studies were conducted in the SBP Medical Discovery Institute Animal Facility in accordance with the Institutional Animal Care and Use Committee guidelines. 8-week-old males C57BL/6 mice were purchased from Jackson laboratories (Bar Harbor, ME) and allowed to acclimatize for 1 week. KRAS^LSLG12D/+. p53^R172H/+; PDX^Cretg/+ (KPC/B6) pancreatic cancer cells (1×10^6, suspended in 30 μl sterile PBS) were orthotopically injected into head of the pancreas. After one week, mice were randomized and sorted into treatment groups (n=8 animal/group). L-A′ase (60 IU/animal) was administered daily for five times a week for 3 weeks intraperitoneally. MEK inhibitor PD-325901 (4 mg/kg) in 0.5% (w/v) hydroxy-propyl-methylcellulose, 0.2% (v/v) Tween 80 (Sigma) was administered by oral gavage twice a week for 3 weeks. For in vivo melanoma study, 8-week-old male C57BL/6 mice were injected subcutaneously in the flank with 2×10^5 MaNRAS1 (1007) cells. When tumors reached ˜250 mm^3, mice were randomized and sorted into treatment groups (n=8 animal/group).
(§3) Mice were maintained in a pathogen-free environment with free access to food. Tumor volume was measured blinded twice a week. Tumor volume was measured with linear calipers and calculated using the formula: ([length in millimeters x (width in millimeters)2]/2). […]

[3] = tested on: KRASLSLG12D/+; p53R172H/+; PDXCretg/+ (KPC/B6) pancreatic tumors; assay type: in vivo; conditions: same regimen
Method: as §2, §3

ATF4 mRNA in A375 cells = assay: Polysome profiling of ATF4 mRNA translation; assay type: cell-based, human; conditions: si-ASNS plus PLX-4032 500 nM, 48 hr
Method: Polysome Profiling: Polysome profiling was performed as described previously (Gandin et al., 2014). A375 cells were seeded at 30% confluency in a 15-cm Petri dish and transfected with NT-siRNA, si-ASNS, si-MNK1 (#1), or si-ASNS+si-MNK1 for 16 hr, using JetPrime transfection reagent (Polyplus) as per manufacturer's instruction. Post-transfection, cells were replenished with fresh media containing vehicle (DMSO) or 500 nM PLX-4032 (Selleckchem) for 48 hr treatment. […] Optical density values at 260 nm (OD260) were measured in each lysate and OD260 of ˜5 were then loaded in 5-50% sucrose gradients generated using Gradient Master (Biocomp, Fredericton, NB). […] Sucrose gradients were subjected to ultracentrifugation (SW41 Ti 11E1698 rotor; Beckman 39,000 RPM for 2 hr at 4° C.) and fractionated by displacement using 60% sucrose/0.01% bromophenol blue, on ISCO Foxy fraction collector (35 sec for each fraction ˜750 μL per fraction) equipped with an ultraviolet lamp for continuous absorbance monitoring at 254 nm. […] Relative change in the transcript levels in different pools was determined by the 2-ΔΔCT method, and shown as fold-change relative to mock-treated cells. β-Actin was used as an internal control.

ERK1/2 = assay: Immunoblotting of phosphorylated MEK1/2 and ERK1/2 (MAPK signaling); assay type: cell-based, human; conditions: melanoma cells, 72 hr; gefitinib 1 μM, sunitinib 500 nM
Method: as §1

**Q.** For `O=C(COc1ccc(Cl)cc1)NC1CCC(NC(=O)COc2ccc(Cl)cc2)CC1` (stereo not shown) [ISRIB], which “ATF4 induction following ASNS knockdown (immunoblot)” value (ATF4) is on record?
**A.** suppression of ATF4 induction

**Q.** What about the “cell proliferation in combination with ASNS knockdown (si-ASNS)” value [1] of the same molecule?
**A.** potentiated anti-proliferative effects of ASNS depletion in melanoma cells

**Q.** `O=C(NOC[C@H](O)CO)c1ccc(F)c(F)c1Nc1ccc(I)cc1F` [PD-325901] was tested. Which “tumor growth (volume)” value [2] did it give?
**A.** only modest anti-tumor activity

**Q.** What about the “apoptosis (cleaved caspase-3)” value [3] of the same molecule?
**A.** did not result in a significant increase in apoptosis

**Q.** Which “melanoma cell proliferation, drug alone” value ([1]; BRAF mutant melanoma lines) does the source give for `CCCS(=O)(=O)Nc1ccc(F)c(C(=O)c2c[nH]c3ncc(-c4ccc(Cl)cc4)cc23)c1F` [PLX-4032] here?
**A.** attenuated melanoma cell proliferation

**Q.** What about the “cell proliferation in combination with ASNS knockdown (si-ASNS)” value [1] of the same molecule?
**A.** a more effective inhibition was seen upon its combination with ASNS knockdown

**Q.** What about the “translational efficiency of ATF4 mRNA (polysome distribution)” value (ATF4 mRNA in A375 cells) of the same molecule?
**A.** attenuated increase in translational efficiency of ATF4 mRNA caused by ASNS depletion

**Q.** How did the “ATF4 induction following ASNS knockdown (immunoblot)” value (ATF4) turn out when `Cc1cc(Nc2cc(N)ncn2)c(=O)n2c1C(=O)NC21CCCCC1` [eFT508] was run?
**A.** did not antagonize ATF4 induction in response to ASNS suppression

**Q.** `COc1cc2ncnc(Nc3ccc(F)c(Cl)c3)c2cc1OCCCN1CCOCC1` [gefitinib] was tested. Which “MEK1/2 and ERK1/2 phosphorylation under ASNS knockdown” value (ERK1/2) did it give?
**A.** did not alter ERK1/2 activation under ASNS knockdown conditions

**Q.** With `CCC(=O)N1CCN(c2ccc(-n3c(=O)ccc4cnc5ccc(-c6cnc7ccccc7c6)cc5c43)cc2C(F)(F)F)CC1` [torin 1] as the molecule, how does the “ATF4 induction and upregulation of ATF4 targets following ASNS knockdown” value (ATF4; melanoma and pancreatic cancer cell lines, rapamycin 100 nM, Torin 1 100 nM) read?
**A.** blocked both ATF4 induction and upregulation of ATF4 targets seen following ASNS knockdown
